In experiment [1] the target is 5-hydroxytryptamine receptor 6 (Homo sapiens, UniProt P50406).
Experiment [2] has as its target 5-hydroxytryptamine receptor 7 (Homo sapiens, UniProt P34969).
The target of experiment [3] is D(2) dopamine receptor (Rattus norvegicus, UniProt P61169).
In experiment [4] the target is 5-hydroxytryptamine receptor 3A (Mus musculus, UniProt P23979).
Experiment [5] addresses Alpha-1A adrenergic receptor (Rattus norvegicus, UniProt P43140).
Experiment [6] addresses 5-hydroxytryptamine receptor 5A (Homo sapiens, UniProt P47898).
Experiment [7] has as its target 5-hydroxytryptamine receptor 4 (Cavia porcellus, UniProt O70528).
Experiment [8] has as its target D(3) dopamine receptor (Homo sapiens, UniProt P35462).
Experiment [9] deals with D(4) dopamine receptor (Homo sapiens, UniProt P21917).
Experiment [10] deals with D(2) dopamine receptor (Homo sapiens, UniProt P14416).
Sequence of D(2) dopamine receptor (Homo sapiens, UniProt P14416) (P14416 whole entry): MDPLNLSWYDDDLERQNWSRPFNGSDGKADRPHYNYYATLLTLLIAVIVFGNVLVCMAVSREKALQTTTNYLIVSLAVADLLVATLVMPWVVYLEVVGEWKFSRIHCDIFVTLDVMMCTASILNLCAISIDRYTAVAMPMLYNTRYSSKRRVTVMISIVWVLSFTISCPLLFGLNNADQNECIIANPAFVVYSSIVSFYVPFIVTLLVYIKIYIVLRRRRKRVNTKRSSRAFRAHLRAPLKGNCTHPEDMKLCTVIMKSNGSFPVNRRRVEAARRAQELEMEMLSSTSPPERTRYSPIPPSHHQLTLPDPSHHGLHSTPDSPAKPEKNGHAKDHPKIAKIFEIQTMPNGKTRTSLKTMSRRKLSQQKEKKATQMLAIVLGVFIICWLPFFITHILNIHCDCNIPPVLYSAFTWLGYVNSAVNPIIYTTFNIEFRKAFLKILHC
The target in experiment [11] is 5-hydroxytryptamine receptor 1A (Homo sapiens, UniProt P08908).
Sequence of 5-hydroxytryptamine receptor 1A (P08908 whole entry): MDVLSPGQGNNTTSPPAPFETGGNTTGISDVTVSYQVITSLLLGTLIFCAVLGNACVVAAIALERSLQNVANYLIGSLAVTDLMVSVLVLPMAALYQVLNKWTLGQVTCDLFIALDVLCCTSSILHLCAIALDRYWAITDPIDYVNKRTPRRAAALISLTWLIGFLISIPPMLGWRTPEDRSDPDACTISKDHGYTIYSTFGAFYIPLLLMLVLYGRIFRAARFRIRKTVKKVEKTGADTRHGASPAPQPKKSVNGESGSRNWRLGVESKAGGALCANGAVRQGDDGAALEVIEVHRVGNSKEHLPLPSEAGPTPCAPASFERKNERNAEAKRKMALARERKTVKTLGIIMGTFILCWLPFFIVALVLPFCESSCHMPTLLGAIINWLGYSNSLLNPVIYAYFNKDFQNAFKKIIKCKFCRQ
For experiment [12], the target named is 5-hydroxytryptamine receptor 2A (Homo sapiens, UniProt P28223).
In experiment [13] the target is T1, Alpha-2A adrenergic receptor [16-465] (Rattus norvegicus, UniProt P22909).
T1 construct: 16-465

The target in experiment [14] is 5-hydroxytryptamine receptor 1B (Homo sapiens, UniProt P28222).
Sequence of 5-hydroxytryptamine receptor 1B (P28222 whole entry): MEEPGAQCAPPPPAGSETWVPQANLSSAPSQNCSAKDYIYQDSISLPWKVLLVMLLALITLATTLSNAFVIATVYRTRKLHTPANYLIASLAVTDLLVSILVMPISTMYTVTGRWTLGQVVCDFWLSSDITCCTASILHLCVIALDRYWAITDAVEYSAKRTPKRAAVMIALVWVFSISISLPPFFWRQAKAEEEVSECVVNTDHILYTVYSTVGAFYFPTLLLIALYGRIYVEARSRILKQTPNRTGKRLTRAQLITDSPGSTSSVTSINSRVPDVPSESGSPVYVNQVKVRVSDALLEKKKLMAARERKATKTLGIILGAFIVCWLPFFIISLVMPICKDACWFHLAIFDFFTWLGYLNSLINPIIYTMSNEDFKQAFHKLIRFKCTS
The target in experiment [15] is 5-hydroxytryptamine receptor 1D (Homo sapiens, UniProt P28221).
The target in experiment [16] is 5-hydroxytryptamine receptor 2B (Homo sapiens, UniProt P41595).
Experiment [17] has as its target Alpha-1A adrenergic receptor (Homo sapiens, UniProt P35348).
Experiment [18] concerns the target Alpha-2B adrenergic receptor (Homo sapiens, UniProt P18089).
The target of experiment [19] is Alpha-2C adrenergic receptor (Homo sapiens, UniProt P18825).
Experiment [20] deals with Alpha-1B adrenergic receptor (Homo sapiens, UniProt P35368).
The target of experiment [21] is Alpha-1D adrenergic receptor (Homo sapiens, UniProt P25100).
The target of experiment [22] is 5-hydroxytryptamine receptor 2C (Homo sapiens, UniProt P28335).
Experiment [23] deals with Alpha-2A adrenergic receptor (Homo sapiens, UniProt P08913).

pKi: −log10 of the molar value. Several values for one entry are separate records, joined by “and”; a condition that tells them apart may be missing. Equal entries are not always repeated.

Sequence of D(3) dopamine receptor (P35462 as listed by the source): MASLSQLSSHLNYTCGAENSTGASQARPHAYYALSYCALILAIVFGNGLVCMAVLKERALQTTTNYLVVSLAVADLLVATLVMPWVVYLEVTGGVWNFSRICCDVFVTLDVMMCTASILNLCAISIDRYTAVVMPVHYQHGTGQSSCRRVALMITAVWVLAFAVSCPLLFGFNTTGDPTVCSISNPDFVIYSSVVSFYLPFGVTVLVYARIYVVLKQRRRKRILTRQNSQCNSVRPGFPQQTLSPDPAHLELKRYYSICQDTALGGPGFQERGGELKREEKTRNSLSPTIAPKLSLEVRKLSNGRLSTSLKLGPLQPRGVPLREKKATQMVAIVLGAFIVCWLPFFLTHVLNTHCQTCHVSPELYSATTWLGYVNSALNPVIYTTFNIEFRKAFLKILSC
Sequence of 5-hydroxytryptamine receptor 3A (P23979 as listed by the source): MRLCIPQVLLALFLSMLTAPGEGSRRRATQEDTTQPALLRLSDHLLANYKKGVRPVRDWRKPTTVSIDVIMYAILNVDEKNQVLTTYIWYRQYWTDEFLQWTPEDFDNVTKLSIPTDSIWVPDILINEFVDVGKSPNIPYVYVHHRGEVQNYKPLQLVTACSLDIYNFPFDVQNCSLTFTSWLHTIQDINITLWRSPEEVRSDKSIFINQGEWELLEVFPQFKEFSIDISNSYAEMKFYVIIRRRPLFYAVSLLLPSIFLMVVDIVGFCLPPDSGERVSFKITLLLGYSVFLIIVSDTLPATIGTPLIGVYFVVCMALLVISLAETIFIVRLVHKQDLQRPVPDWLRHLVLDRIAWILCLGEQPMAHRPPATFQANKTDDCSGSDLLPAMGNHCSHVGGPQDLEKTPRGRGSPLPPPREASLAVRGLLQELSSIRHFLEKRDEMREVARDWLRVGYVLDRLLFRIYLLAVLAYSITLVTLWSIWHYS
Sequence of D(2) dopamine receptor (Rattus norvegicus, UniProt P61169) (P61169 whole entry): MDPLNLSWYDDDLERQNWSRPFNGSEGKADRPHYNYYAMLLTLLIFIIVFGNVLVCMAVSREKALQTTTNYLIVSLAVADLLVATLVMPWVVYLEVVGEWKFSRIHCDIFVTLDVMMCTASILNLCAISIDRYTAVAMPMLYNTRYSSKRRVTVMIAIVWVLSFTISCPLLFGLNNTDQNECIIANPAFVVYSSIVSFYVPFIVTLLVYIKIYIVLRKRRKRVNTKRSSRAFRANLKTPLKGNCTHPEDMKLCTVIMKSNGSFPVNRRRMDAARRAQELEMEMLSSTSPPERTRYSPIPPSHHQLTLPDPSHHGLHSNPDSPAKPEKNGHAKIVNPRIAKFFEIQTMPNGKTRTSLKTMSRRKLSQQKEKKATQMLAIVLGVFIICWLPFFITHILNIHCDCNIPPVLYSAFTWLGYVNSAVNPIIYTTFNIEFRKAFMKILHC
Sequence of 5-hydroxytryptamine receptor 4 (O70528 whole entry): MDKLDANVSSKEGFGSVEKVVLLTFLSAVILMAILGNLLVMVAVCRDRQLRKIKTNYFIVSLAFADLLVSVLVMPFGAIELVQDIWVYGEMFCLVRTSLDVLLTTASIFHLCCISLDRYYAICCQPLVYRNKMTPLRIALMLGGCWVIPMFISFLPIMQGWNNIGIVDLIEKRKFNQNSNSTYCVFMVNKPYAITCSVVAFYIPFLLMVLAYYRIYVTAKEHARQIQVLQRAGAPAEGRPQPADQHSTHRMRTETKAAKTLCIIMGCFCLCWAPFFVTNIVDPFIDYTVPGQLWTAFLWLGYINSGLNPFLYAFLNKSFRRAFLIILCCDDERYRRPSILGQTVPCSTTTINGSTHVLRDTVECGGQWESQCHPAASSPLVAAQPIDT
Sequence of 5-hydroxytryptamine receptor 5A (P47898 whole entry): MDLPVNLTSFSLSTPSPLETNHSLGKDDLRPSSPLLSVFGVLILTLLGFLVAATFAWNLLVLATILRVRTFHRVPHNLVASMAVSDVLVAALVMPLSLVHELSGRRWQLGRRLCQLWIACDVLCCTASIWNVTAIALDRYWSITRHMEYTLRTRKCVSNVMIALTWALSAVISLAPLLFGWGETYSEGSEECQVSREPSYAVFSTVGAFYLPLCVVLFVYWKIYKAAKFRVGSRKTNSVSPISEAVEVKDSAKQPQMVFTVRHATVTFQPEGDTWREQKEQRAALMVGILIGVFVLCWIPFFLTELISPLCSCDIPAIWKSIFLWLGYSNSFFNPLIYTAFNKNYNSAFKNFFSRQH
Sequence of 5-hydroxytryptamine receptor 7 (P34969 whole entry): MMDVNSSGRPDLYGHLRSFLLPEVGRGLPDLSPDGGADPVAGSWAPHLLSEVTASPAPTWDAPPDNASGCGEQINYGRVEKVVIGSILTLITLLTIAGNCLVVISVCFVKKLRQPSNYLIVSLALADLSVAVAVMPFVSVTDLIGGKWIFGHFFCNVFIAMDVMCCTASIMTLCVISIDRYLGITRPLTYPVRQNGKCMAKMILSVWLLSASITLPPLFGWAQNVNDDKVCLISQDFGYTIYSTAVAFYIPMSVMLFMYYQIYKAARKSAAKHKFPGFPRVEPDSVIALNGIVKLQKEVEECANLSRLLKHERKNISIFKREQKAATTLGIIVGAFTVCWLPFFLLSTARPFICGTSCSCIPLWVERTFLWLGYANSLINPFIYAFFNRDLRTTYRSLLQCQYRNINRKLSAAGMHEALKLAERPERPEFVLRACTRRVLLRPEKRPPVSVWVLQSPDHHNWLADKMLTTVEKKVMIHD
Sequence of Alpha-1A adrenergic receptor (Rattus norvegicus, UniProt P43140) (P43140 whole entry): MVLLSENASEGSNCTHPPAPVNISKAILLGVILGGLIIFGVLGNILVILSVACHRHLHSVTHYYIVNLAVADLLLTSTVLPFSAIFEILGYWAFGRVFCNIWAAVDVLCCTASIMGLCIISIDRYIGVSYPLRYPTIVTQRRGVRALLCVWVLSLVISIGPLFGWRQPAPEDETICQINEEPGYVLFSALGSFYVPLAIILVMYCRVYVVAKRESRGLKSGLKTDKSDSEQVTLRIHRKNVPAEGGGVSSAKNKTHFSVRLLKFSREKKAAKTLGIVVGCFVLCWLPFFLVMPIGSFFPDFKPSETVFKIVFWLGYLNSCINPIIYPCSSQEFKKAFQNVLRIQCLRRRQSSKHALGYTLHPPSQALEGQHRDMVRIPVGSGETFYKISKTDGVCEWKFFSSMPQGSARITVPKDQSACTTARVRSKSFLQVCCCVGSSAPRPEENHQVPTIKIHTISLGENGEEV
Sequence of 5-hydroxytryptamine receptor 6 (P50406 whole entry): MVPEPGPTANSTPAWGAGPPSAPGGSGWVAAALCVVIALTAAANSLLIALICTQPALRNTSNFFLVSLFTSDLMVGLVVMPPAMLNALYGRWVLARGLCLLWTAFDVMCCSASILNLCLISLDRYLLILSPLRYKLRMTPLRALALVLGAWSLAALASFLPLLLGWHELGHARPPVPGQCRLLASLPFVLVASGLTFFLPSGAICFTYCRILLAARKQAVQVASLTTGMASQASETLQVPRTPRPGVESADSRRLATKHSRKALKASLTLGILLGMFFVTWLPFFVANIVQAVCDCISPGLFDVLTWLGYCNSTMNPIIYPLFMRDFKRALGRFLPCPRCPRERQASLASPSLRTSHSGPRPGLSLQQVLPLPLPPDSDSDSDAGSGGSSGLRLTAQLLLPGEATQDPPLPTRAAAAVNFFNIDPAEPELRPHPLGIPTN

With `CCCN(CCC)CCc1cccc2c1CC(=O)N2`, the pKi (in general, the Ki on a negative log10 scale, so that one unit is a factor of ten) in [1] is < 5.00; in experiment [2], 5.82; in experiment [3], 5.94; in experiment [4], < 5.00; in experiment [5], < 5.00; in experiment [6] it was < 5.00. Besides, the pKi in [7] is < 5.00.

Regarding `CCCN1CCO[C@@H]2c3cc(C(N)=O)ccc3CC[C@H]21` [S32504 (+)], the pKi is 8.05 in experiment [8]; 6.34 in experiment [3]; 5.29 in experiment [9]; 6.29 and 6.45 in experiment [10].

With `CCCN1CCOC2c3cc(C(N)=O)ccc3CCC21` (stereo not drawn) [S32504], the pKi in [8] was 8.05; in experiment [11] it was 6.59; in [12], 5.28; in experiment [13], < 5.00; in [1] it was < 5.00; in [14], < 5.00. The pKi in [15] was 6.58; in [16], 5.34; in experiment [2] it was 6.18; in [4] it was < 5.00; in experiment [17], < 5.00; in experiment [5] it was < 5.00. Moreover, the pKi in experiment [6] was < 5.00; in experiment [18] it was 5.78; in experiment [19] it was < 5.00; in experiment [20], < 5.00; in [7], < 5.00; in [21] it was < 5.00. Besides, the pKi in experiment [22] is < 5.00; in experiment [23], 5.09.

Consider `N#Cc1ccc2c(c1)[C@H]1CN(CCCCNC(=O)c3ccc(-c4ccccc4)cc3)C[C@@H]1CO2` [S33084], for which the values for the pKi in [8] and in experiment [10] were 9.59 and 7.53, respectively.

Source of the values: BindingDB's records for doi:10.1124/jpet.103.062398 (Institut De Recherches Servier, 2004).
